Key:
[1] = molecular target: T1, BRD4.1 (Homo sapiens (Human), UniProt O60885); assay: Acetyl-Histone Binding Assay (AlphaScreen); settings: in vitro percent inhibition of BRD4.1 at 2.5 μM compound concentration; read-out: % INHIB (at 2.5 uM)
Protocol: Assays were performed with minor modifications from the manufacturer's protocol (PerkinElmer, USA). All reagents were diluted in 50 mM HEPES, 150 mM NaCl, 0.1% w/v BSA, and 0.01% w/v Tween^□ 20 at pH 7.5 and allowed to equilibrate to room temperature prior to addition to plates. After addition of Alpha beads to master solutions, all subsequent steps were performed in low light conditions. […] Addition to wells was performed with either a multichannel pipet (for optimization experiments) or a Biotek EL406 liquid handler. After a 1000-rpm spin-down for 1 minute, 100 nL of the solutions of the compounds of the invention from stock plates were added by pin transfer using a Janus Workstation (PerkinElmer, USA). The streptavidin-coated donor beads (25 μg/ml final) were added as with previous solution in a 2×, 10 μL volume. Following this addition, the plates were sealed with foil to block light exposure and to prevent evaporation. The plates were spun down again at 1000 rpm for 1 minute. Next, the plates were incubated in the room with the plate reader (for temperature equilibration) for 1.5 hour prior to reading the assay.

[2] = tested on: 797 cells; assay: Cellular assay, cell viability (ATPlite), BRD4 dependent cell line 797; assay type: cell-based; settings: 72 h; BRD4 dependent cell line 797, three days incubation
Protocol: (§1) The compounds of the invention are also evaluated in the BRD4 dependant cell line for the cellular activity to generate cellular IC50 values.
(§2) Cells (e.g., BRD4 dependant cells) were counted and adjusted to 60,000 cells/mL. Using a Biotek EL406, 50 μL of the cells in media were distributed into 384 well white plates from Thermo. Immediately after plating, compounds of the invention in DMSO were distributed to plates. For large plate sets, cells were returned to a 37° C. incubator while not in use. The compounds were added to plates using a 100 nL 384 well pin transfer manifold on a Janus workstation. Stocks were arrayed in 10 point quadruplicate dose response in DMSO stock in 384-well Greiner compound plates. After addition of the compounds, plates were incubated for three days in a 37° C. incubator. Cell viability was read out using ATPlite from Perkin Elmer. Plates were removed from the incubator and brought to room temperature prior to use. Lyophilized powder was resuspended in lysis buffer and diluted 1:2 with DI water. 25 μL of this solution was added to each well using the Biotek liquid handler. Plates were sealed with adherent aluminum seals prior to vortexing and spinning down at 1000 g for 1 minute. Plates were incubated for 15 minutes at room temperature before signal was read on an Envision Plate Reader.

[3] = tested on: HL60 cells; assay: Cellular assay, cell viability (ATPlite), BRD4 dependent cell line HL60; assay type: cell-based; settings: Homo sapiens, HL-60, 72 h; BRD4 dependent cell line HL60, three days incubation
Protocol: as §1, §2

[4] = molecular target: T1, BRD4.1; assay: Isothermal Titration Calorimetery (ITC); assay type: binding; settings: BRD4.1, 25° C.
Protocol: Isothermal Titration Calorimetery
ITC was performed using a ITC200 microcalorimeter from GE™ (Northampton, Mass.). All experiments were carried out at 25° C. while stirring at 1000 rpm, in ITC buffer (50 mM HEPES pH 7.4 at 25° C., 150 mM NaCl). The microsyringe was loaded with a solution of the protein sample (225 μM, in ITC buffer). […] All titrations were conducted using an initial injection of 0.2 μl, followed by 19 identical injections of 2 μl with a duration of 5 sec (per injection) and a spacing of 90 sec between injections. The heat of dilution was determined by independent titrations (protein into buffer) and was subtracted from the experimental data. […] The collected data were implicated in the MicroCal™ Origin software supplied with the instrument to yield enthalpies of binding (ΔH) and binding constants (KB) as previously described by Wiseman and coworkers. Thermodynamic parameters were calculated (ΔG=ΔH−TΔS=−RT ln KB, where ΔG, ΔH and ΔS are the changes in free energy, enthalpy and entropy of binding respectively). A single binding site model was employed.

| EC50 [3] | Kd [4] | Compound | inhibition at 2.5 µM [1] | EC50 [2] |
| --- | --- | --- | --- | --- |
| – | – | CCN1CCN(C(=O)Cc2ccc(Nc3ncc(F)c(Nc4ccc(C(=O)Nc5ccccc5Cl)cc4)n3)cc2)CC1 | 56.1% | – |
| 2.07 µM | 0.483 µM | CC(C)(C)NS(=O)(=O)c1cccc(Nc2nc(Nc3ccc(OCCN4CCCC4)cc3)ncc2N)c1 | – | 2.4 µM |
| – | – | Cc1cnc(Nc2ccc(OCCN3CCCC3)cc2)nc1Nc1cccc(S(=O)(=O)NC(C)(C)C)c1 | 36% | – |

Reference: patent publication US10730860B2, “Diaminopyrimidine benzenesulfone derivatives and uses thereof” (Dana-Farber Cancer Institute, Inc., priority 2014, dated 2020)
